According to publication PMC12124858, “Thymoquinone loaded on chitosan nanoparticles alleviated the consequences of cryptosporidiosis infection in a murine model: Evidence from parasitological, histopathological, immunohistochemical, and immunological studies” (PLOS One, 2025):

Experiments:
Cryptosporidium parvum [1] = experiment: Oocyst shedding in immunosuppressed infected mice; type: in vivo, Swiss albino mice; conditions: for I % (percent inhibition of oocyst count) / I% (percent inhibition of oocyst count, effectiveness): versus infected untreated group
Experimental: Animals: The study was conducted following approval by the Research Ethics Committee of Zagazig University, Institutional Animal Care and Use Committee (ZU-IACUC), under protocol number ZU-IACUC/2/F/53/2024, following the National Institutes of Health guidelines for animal experimentation. Seventy male laboratory-bred Swiss albino mice free of parasites were included in this study. The mice weighed 20-25 grams at the start of the trial and were between four and six weeks old. They were purchased from the Biological Supply Center of the Theodor Bilharz Research Institute (TBRI). Throughout the trial, the mice were housed in an air-conditioned animal facility maintained at 20-22°C and were provided with a standard commercial pelleted diet and free access to water. […] Immunosuppression: The mice were subjected to immunosuppression by administering dexamethasone (Dexazone, […] Pharmaceuticals, Cairo, Egypt) orally through an esophageal tube at a rate of 0.25 μg/g/day for 14 consecutive days before being inoculated with C. parvum oocysts. Throughout the experiment, the mice received the same dosage of dexamethasone. The infection: In a previous study, we isolated Cryptosporidium oocysts from diarrheal calves and genetically identified them as C. parvum. The 2.5% potassium dichromate solution containing purified oocysts was stored at 4°C until needed. After preparing an infectious inoculum and counting the number of oocysts in the concentrated stock inoculum, the fluid volume of the inoculum per mouse was determined. Oral-gastric gavage was used to infect each mouse orally with C. parvum oocysts. Approximately 3 × 10^3 oocysts/mouse were used to infect each mouse at 0 days post-infection (dpi). […] Thymoquinone loaded on chitosan nanoparticles was given at the same dose for Group VII. Chitosan was administered at 200 mg/kg three times a week, starting at seven dpi for 2 weeks for Group III [36]. Assessments of the drug therapy: Parasitological examination: The mice feces were collected at 7, 14, and 21 dpi. For the oocyst shedding assessment, the number of Cryptosporidium oocysts in the fecal pellets was counted after staining with Kinyoun's acid-fast stain. Fecal samples were collected from each infected mouse. The mean number of oocysts was calculated for each mouse group. After weighing, a milligram of the fecal pellet was placed in 1 milliliter of 10% formalin. Centrifugation concentrated the fecal solution for ten minutes at 7000 rpm. The number of oocysts in one milliliter of the feces sample was calculated using 100 μl of fecal material dried, stained, and observed through an oil immersion lens (x100). The oocyst count was detected and expressed per gram of feces. The effectiveness of each drug was assessed according to [35] and represented as a percentage of reduction using the following formula: Efficacy(%)=100×((infected model group oocyst count-treated model group oocyst count)/(infected model group oocyst count)) %Inhibition = [(mean oocyst count in the infected untreated group - mean oocyst count in the infected treated group)/mean oocyst count in the infected untreated group] × 100

Cryptosporidium parvum [2] = experiment: Histopathological examination of the spleen (H&E); type: in vivo, Swiss albino mice; conditions: 21 dpi, in words
Experimental: (§1) At 21 dpi, the mice were humanely euthanized under light anesthesia induced by isoflurane inhalation (Forane®, Baxter, UK). Representative tissue specimens from all animals’ intestines, livers, and spleens were carefully collected and fixed in a 10% neutral buffered formalin solution for 48 hours. Following fixation, the tissues were dehydrated through a graded series of ethyl alcohol concentrations, cleared in xylene, and subsequently embedded in paraffin wax. Two sections, each 5 µm thick, were obtained from each tissue specimen. The sections were then deparaffinized in xylene and rehydrated through a descending series of alcohol concentrations. After rehydration, the tissue sections were mounted onto histological slides and stained with hematoxylin and eosin (H&E) for microscopic examination. The prepared slides were thoroughly analyzed under a light microscope to identify pathological alterations and evaluate the administered drug’s potential ameliorative effects. This standardized protocol ensured accurate and consistent histological assessment across all samples [39].

Cryptosporidium parvum [3] = experiment: Histopathological examination of the liver (H&E); type: in vivo, Swiss albino mice; conditions: 21 dpi, in words
Experimental: as §1

L. donovani = tested on: L. donovani; design: method as in Islamuddin et al. [22]; conditions: in words; ref Islamuddin et al. [22]; cited from earlier work
[4] = 7th day PI (start of treatment), immunosuppressed mice, oral
[5] = 14th day PI, NTZ forms 100 mg/kg/day 5 days, THQ forms and CsNPs 200 mg/kg three times a week, oral from 7 dpi
[6] = 21th day PI, NTZ forms 100 mg/kg/day 5 days, THQ forms and CsNPs 200 mg/kg three times a week, oral from 7 dpi

SMILES	Count of Cryptosporidium oocysts per gram stool, Mean ± SE (Cryptosporidium parvum [1]; [4])	I % (percent inhibition of oocyst count) (Cryptosporidium parvum [1]; 14th day PI) [%]	Count of Cryptosporidium oocysts per gram stool, Mean ± SE (Cryptosporidium parvum [1]; [5])	I% (percent inhibition of oocyst count, effectiveness) (Cryptosporidium parvum [1]; 21th day PI) [%]	Count of Cryptosporidium oocysts per gram stool, Mean ± SE (Cryptosporidium parvum [1]; [6])	Spleen histopathological findings (Cryptosporidium parvum [2])	Liver histopathological findings (Cryptosporidium parvum [3])	leishmanicidal activity (L. donovani)
CC(=O)Oc1ccccc1C(=O)Nc1ncc([N+](=O)[O-])s1 [NTZ, nitazoxanide, reference compound]	307.3 ± 3 ^Aa x10^3 per gram stool	53	146.8 ± 2.9 ^Bc x10^3 per gram stool	54	145.5 ± 2.6 ^Bc x10^3 per gram stool	partial improvement with mild hyperplasia of lymphoid elements	partial improvement	
CC1=CC(=O)C(C(C)C)=CC1=O [THQ, 2-isopropyl-5-methyl-1,4-benzoquinone]	300 ± 3.1 ^Aa x10^3 per gram stool	75	78 ± 1.5 ^Bd x10^3 per gram stool	77	72 ± 2.6 ^Cd x10^3 per gram stool	partial improvement with mild hyperplasia of lymphoid elements	partial improvement	significant leishmanicidal activity
